Test results reported in patent US8946199B2, “Co-administration of steroids and Zoledronic acid to prevent and treat side effects from Zoledronic acid infusion” (priority 2010, dated 2015).

How the values were obtained:
[1] = patients with osteoporosis; Zoledronic Acid alone, 3 patients
Experimental: In theory, co-administration of a steroid for a short duration could decrease inflammation and therefore the incidence of ONJ. […] A study comparing the incidence of PDS with Zoledronic acid with a Zoledronic Acid and steroid combination is, however, feasible and such a study has been undertaken.
Eight patients with osteoporosis were treated with Zoledronic Acid alone (3 patients) or with the combination of steroids (oral prednisone, 3, and intravenous prednisolone, 2) with Zoledronic Acid.

[2] = in vivo; cited from earlier work
[3] = administration of Zometa; syndrome of fever, nausea, bone pain, arthralgia, myalgia, chills; cited from earlier work

**Q.** Which “patients who suffered from PDS” value [1] does the source give for `O=P(O)(O)C(O)(Cn1ccnc1)P(=O)(O)O` [Zoledronic Acid] here?
**A.** The value was “All three”.

**Q.** And the t1/2α [2]?
**A.** Its t1/2α is 14.4 min.

**Q.** What about the “patients affected by post-dosing syndrome (PDS)” value [3] of the same compound?
**A.** The value was no more than 44%.
